Laboratory results: patent US4032645A, “Injectable metronidazole composition” (G. D. Searle & Co., priority 1975, dated 1977)
Where two headings read alike, the source gives them in different places.

How the values were obtained:
[1] = assay type: physicochemical; details: for amount dissolved: ethanol
Text: The critical features of the solubility of metronidazole, [1-(2-hydroxyethyl)-2-methyl-5-nitroimidazole] are evident from FIGS. 1 through 6.
It is observed that the optimum solubility in water-ethanol mixtures occur at about 80% ethanol.
It is considered desirable to maintain N,N-dimethylacetamide concentrations in any formulation at a relatively low level. In FIG. 2, it is shown that 20% N,N-dimethylacetamide is not a suitable solvent system in combination with water or ethanol alone. Those satisfied with less desirable formulation could use a solvent system of 20% N,N-dimethylacetamide, 40% water, and 40% ethanol. […] One would also believe this for combinations of 30% N,N-dimethylacetamide and water and ethanol.
It can be observed from FIG. 3 that, unexpectedly, a solvent system of 30% N,N-dimethylacetamide in combination with the indicated proportions of ethanol and water solubilizes more than 500 mg./10 ml. of metronidazole.
Also, unexpectedly, FIGS. 4, 5 and 6 illustrate that the combination of ethanol, water and N,N-dimethylacetamide can be made to dissolve more than 500 mg. of metronidazole by the addition of nicotinamide, propylene glycol or 2,2-dimethyl-1,3-dioxolane-4-methanol. These systems have the advantages of an even lower percentage composition of N,N-dimethylacetamide. Optimum systems and the solubility of metroinidazole therein are illustrated in Table 1.

[2] = water; cited from earlier work
[3] = most stable at a pH range; cited from earlier work

ethanol content at optimum solubility in water-ethanol mixtures [1]: about 80% | solubility [1]: more than 500 mg./10 ml. | amount dissolved ([1]; water and N,N-dimethylacetamide with addition of 2,2-dimethyl-1,3-dioxolane-4-methanol (FIG. 5)): more than 500 mg. | amount dissolved ([1]; water and N,N-dimethylacetamide with addition of nicotinamide (FIG. 6)): more than 500 mg. | amount dissolved ([1]; water and N,N-dimethylacetamide with addition of propylene glycol (FIG. 4)): more than 500 mg.
SMILES: Cc1ncc([N+](=O)[O-])n1CCO [metronidazole, 1-(2-hydroxyethyl)-2-methyl-5-nitroimidazole]
aqueous solubility [2]: about 100 mg./10 ml. | pH range of greatest stability [3]: 5.0-7.5
